This passage reports Ki results from patent US20050209278A1, “Piperidinyl- and piperazinyl-sulfonylmethyl hydroxamic acids and their use as protease inhibitors” (priority 2002, published 2005).

Structures are written as SMILES.

The target of the assay is T1, MMP-1 (Homo sapiens, UniProt P03956).
T1 construct: made in house; host or cells: MMP-1-transfected HT-1080 cells (spent media)
T1 sequence (P03956 100-469): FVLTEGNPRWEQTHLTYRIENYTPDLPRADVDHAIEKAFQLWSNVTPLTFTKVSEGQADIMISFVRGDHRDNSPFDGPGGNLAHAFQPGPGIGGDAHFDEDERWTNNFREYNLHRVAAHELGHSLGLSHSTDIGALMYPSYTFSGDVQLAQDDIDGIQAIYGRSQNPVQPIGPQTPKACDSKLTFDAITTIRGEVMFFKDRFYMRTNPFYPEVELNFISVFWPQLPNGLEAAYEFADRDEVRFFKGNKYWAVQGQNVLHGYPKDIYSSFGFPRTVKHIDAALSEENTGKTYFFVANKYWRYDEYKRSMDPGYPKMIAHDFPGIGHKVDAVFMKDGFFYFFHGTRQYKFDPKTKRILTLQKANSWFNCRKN
Kind of assay: In vitro MMP inhibition, Ki determination (fluorogenic substrate II). Format: biochemical. The conditions noted are these: value outside parentheses; read-out: MMP-1 Ki.

Consider `CCCCc1ccc(C2CCN(S(=O)(=O)C3(C(=O)NO)CCN(CCOC)CC3)CC2)nc1` [Example 397], for which the Ki was > 10 µM.

On to `O=C(NO)C1(S(=O)(=O)N2CCC(c3ccc(OCc4ccccc4)cn3)CC2)CCOCC1` [Example 398], for which the inhibitory constant (Ki) stood at 1.95 µM.

On to `CCCC#Cc1cnc(N2CCN(S(=O)(=O)C3(C(=O)NO)CCOCC3)CC2)s1` [Example 400], for which the Ki was 3.32 µM.

As to `CCCCCC/C=C\C1CCN(S(=O)(=O)C2(C(=O)NO)CCOCC2)CC1` [Example 401], the Ki was > 10 µM.

`CCCCCC/C=C/C1CCN(S(=O)(=O)C2(C(=O)NO)CCOCC2)CC1` [Example 402]: the Ki turned out to be 3.65 µM.

Consider `O=C(NO)C1(S(=O)(=O)N2CCC(COCc3ccc(C(F)(F)F)cc3)CC2)CCOCC1` [Example 403], for which the Ki is > 10 µM.

Turning to `O=C(NO)C1(S(=O)(=O)N2CCC(COCc3ccc(OC(F)(F)F)cc3)CC2)CCOCC1` [Example 404], the Ki is > 10 µM.

On to `O=C(NO)C1(S(=O)(=O)N2CCC(COCc3ccc(SC(F)(F)F)cc3)CC2)CCOCC1` [Example 405], for which the Ki is 8.32 µM.

Take `CCCCCCCOC1CCN(S(=O)(=O)C2(C(=O)NO)CCOCC2)CC1` [Example 406]: the Ki was 9.01 µM.

In the case of `O=C(NO)C1(S(=O)(=O)N2CCC(c3ccc(-c4cccs4)c(F)c3)CC2)CCOCC1` [Example 407], the inhibition constant Ki is > 10 µM.

For `O=C(NO)C1(S(=O)(=O)N2CCC(c3ccc(N4CCCC4)cn3)CC2)CCOCC1` [Example 408], the Ki was > 10 µM.

On to `O=C(NO)C1(S(=O)(=O)N2CCC(c3ccc(-c4ccccn4)cn3)CC2)CCOCC1` [Example 409], for which the inhibition constant (Ki) was > 10 µM.

In the case of `CCCCOc1ccc(C2CCN(S(=O)(=O)C3(C(=O)NO)CCOCC3)CC2)nc1` [Example 410], the Ki is 3.49 µM.

For the compound `CCC(F)(F)CCc1ccc(C2CCN(S(=O)(=O)C3(C(=O)NO)CCOCC3)CC2)cn1` [Example 411], the Ki was > 10 µM.

Turning to `Cc1ccc(-c2csc(N3CCN(S(=O)(=O)C4(C(=O)NO)CCOCC4)CC3)n2)cc1` [Example 412], the Ki was > 10 µM.

For the compound `Cc1cccc(-c2csc(N3CCN(S(=O)(=O)C4(C(=O)NO)CCOCC4)CC3)n2)c1` [Example 413], the Ki is > 10 µM.

`O=C(NO)C1(S(=O)(=O)N2CCN(c3nc(-c4ccccc4)cs3)CC2)CCOCC1` [Example 415]: the Ki was > 10 µM.

In the case of `Cc1ccc(-c2ccc(C3CCN(S(=O)(=O)C4(C(=O)NO)CCOCC4)CC3)nc2)s1` [Example 416], the Ki came out at 6.42 µM.

Regarding `O=C(NO)C1(S(=O)(=O)N2CCC(c3ccc(-c4cccc(F)c4)cn3)CC2)CCOCC1` [Example 417], the Ki came out at 1.83 µM.

For the compound `O=C(NO)C1(S(=O)(=O)N2CCC(c3ccc(OCCC(F)(F)F)cn3)CC2)CCOCC1` [Example 418], the inhibition constant Ki was found to be 3.08 µM.

For `O=C(NO)C1(S(=O)(=O)N2CCN(c3ccc(-c4nn[nH]n4)cc3)CC2)CCOCC1` [Example 419], the Ki was > 10 µM.

With `CCCCc1ccc(C2(O)CCN(S(=O)(=O)C3(C(=O)NO)CCOCC3)CC2)nc1` [Example 420], the Ki was > 10 µM.
